Calls of active or inactive are those of the source. The calls are words filed in the database; no cut-off is given here.
What was measured:
A549 = experiment: Cytotoxicity against human A549 cells at 20 ug/mL; assay type: functional, cell-based
HL-60 = experiment: Cytotoxicity against human HL60 cells at 20 ug/mL; assay type: functional, cell-based

Row | SMILES | Activity (A549) | Activity (HL-60)
1 | C/C1=C\[C@H](O)CC2=C[C@@H](OC2=O)[C@H](C(C)C)CC/C(C)=C/CC1 | inactive | inactive
2 | C/C1=C\CC[C@H](C)C[C@H](O)CC2=C[C@@H](OC2=O)[C@H](C(C)C)CC1 | inactive | inactive
3 | CC(=O)O[C@H]1C/C(C)=C/CC/C(C)=C/[C@H](O)CC2=C[C@H](OC2=O)[C@@H]1C(C)C | inactive | inactive
4 | C/C1=C\[C@@H](O)CC2=C[C@@H](OC2=O)[C@H](C(C)C)CC/C(C)=C/CC1 | inactive | inactive
